# Columns and labels:
# [1] = target: human adrenergic beta2 receptors (Homo sapiens (Human), UniProt P07550); assay: Human adrenergic β2 receptor binding assay; settings: Sf9 cell membranes, 3H-CGP12177 radioligand
# Experimental: Test 1: Human Adrenergic β1 and β2 Receptor Binding Assays
# The study of binding to human adrenergic beta1 and beta2 receptors was performed using commercial membranes prepared from Sf9 cells where they are overexpressed (Perkin Elmer). The membrane suspensions (16 μg/well for beta1 and 5 μg/well for beta2) in assay buffer (75 mM Tris/HCl with 12.5 mM MgCl2 and 2 mM EDTA pH=7.4) were incubated with 0.14 or 0.6 nM of 3H-CGP12177 (Amersham) for beta 1 and beta 2 receptors respectively in a final volume of 250 μl, in GFC Multiscreen 96 well plates (Millipore) previously treated with assay buffer containing 0.3% PEI (Sigma). Non specific binding was measured in the presence of 1 μM propanolol. Incubation was maintained for 60 minutes at room temperature and with gentle shaking. The binding reactions were terminated by filtration and washing with 2.5 volumes of Tris/HCl 50 mM pH=7.4. The affinity of each test compound to the receptor was determined by using ten different concentrations ran in duplicate. IC50s were calculated using Activity Base software from IDBS and the four parameters-log equation.
# [2] = target: human muscarinic M3 receptors (Homo sapiens (Human), UniProt P20309); assay: Human muscarinic M3 receptor binding assay; settings: CHO-K1 cell membranes, [3H]-NMS radioligand
# Experimental: Test 2: Human Muscarinic M1, M2, M3, M4 and M5 receptors binding assays
# The study of binding to human muscarinic M1, M2, M3, M4 and M5 receptors was performed using commercial membranes (Perkin Elmer) prepared from CHO-K1 cells. Radioligand binding experiments were conducted in 96 polypropylene well plates in a total volume of 200 μl. All reagents were dissolved in assay binding buffer (PBS with calcium and magnesium, SIGMA), except compounds that were dissolved in DMSO 100%. Non-specific binding (NSB) was measured in the presence of 1 μM atropine. [3H]-NMS was used as the radioligand at a concentration of 1 nM for M2, M3 and M5 and 0.3 nM for M1 and M4. [3H]-NMS and antagonists were incubated with membranes that express human muscarinic receptors M1, M2, M3, M4 and M5 at concentrations of 8.1, 10, 4.9, 4.5 and 4.9 μg/well, respectively.
# After an incubation period of two hours with gentle shaking, 150 μl of the reaction mix were transferred to 96 GF/C filter plates (Millipore), previously treated with wash buffer (Tris 50 mM; NaCl 100 mM; pH: 7.4), containing 0.05% PEI (Sigma) during one hour. Bound and free [3H]-NMS were separated by rapid vacuum filtration in a manifold from Millipore and washed four times with ice cold wash buffer. After drying 30 min, 30 μl of OPTIPHASE Supermix were added to each well and radioactivity quantified using a Microbeta microplate scintillation counter.
# The affinity of each test compound to the receptors was determined by using ten different concentrations ran in duplicate. IC50s were calculated using Activity Base software from IDBS and the four parameters-log equation.
# Sequence of human muscarinic M3 receptors (P20309 whole entry): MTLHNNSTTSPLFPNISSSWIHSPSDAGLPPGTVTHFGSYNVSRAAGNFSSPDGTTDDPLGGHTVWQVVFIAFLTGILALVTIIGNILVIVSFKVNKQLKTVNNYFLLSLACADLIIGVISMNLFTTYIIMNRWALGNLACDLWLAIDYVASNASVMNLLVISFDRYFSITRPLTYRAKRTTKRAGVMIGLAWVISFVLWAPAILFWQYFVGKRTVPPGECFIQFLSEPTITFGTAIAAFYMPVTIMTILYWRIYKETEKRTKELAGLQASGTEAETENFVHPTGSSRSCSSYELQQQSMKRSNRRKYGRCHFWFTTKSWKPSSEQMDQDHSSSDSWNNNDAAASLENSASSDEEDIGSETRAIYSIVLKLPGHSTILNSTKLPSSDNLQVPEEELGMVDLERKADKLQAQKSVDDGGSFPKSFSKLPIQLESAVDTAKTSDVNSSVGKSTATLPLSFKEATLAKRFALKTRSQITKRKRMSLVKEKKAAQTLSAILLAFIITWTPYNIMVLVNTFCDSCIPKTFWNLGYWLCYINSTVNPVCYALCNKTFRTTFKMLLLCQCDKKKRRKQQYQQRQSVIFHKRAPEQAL
Compound,IC50 [1] [nM],IC50 [2] [nM]
"COc1cc(-c2noc(CCCN(C)[C@H]3CC[C@H](OC(=O)C(O)(c4cccs4)c4cccs4)CC3)n2)c(Cl)cc1CNC[C@H](O)c1ccc(O)c2[nH]c(=O)ccc12 (relative stereo) [Example 9, trans-4-[(3-{3-[2-chloro-4-({[(2R)-2-hydroxy-2-(8-hydroxy-2-oxo-1,2-dihydroquinolin-5-yl)ethyl]amino}methyl)-5-methoxyphenyl]-1,2,4-oxadiazol-5-yl}propyl)(methyl)amino]cyclohexylhydroxy(di-2-thienyl)acetate dihydrofluoride]",2.2,0.2
"CN(CCCn1c(=O)oc2cc(CCNC[C@H](O)c3ccc(O)c4[nH]c(=O)ccc34)ccc21)[C@H]1CC[C@H](OC(=O)C(O)(c2cccs2)c2cccs2)CC1 (relative stereo) [Example 19, trans-4-[{3-[6-(2-{[(2R)-2-hydroxy-2-(8-hydroxy-2-oxo-1,2-dihydroquinolin-5-yl)ethyl]amino}ethyl)-2-oxo-1,3-benzoxazol-3(2H)-yl]propyl}(methyl)amino]cyclohexylhydroxy(di-2-thienyl)acetate dihydrofluoride]",62,0.8
CC(Cc1ccc(OCC(=O)NCCN[C@H]2CC[C@H](OC(=O)C(O)(c3cccs3)c3cccs3)CC2)cc1)NC[C@H](O)c1ccc(O)c2[nH]c(=O)ccc12 (relative stereo) [Example 20],3.1,3.6
"trans-4-[(3-{3-[4-({[(2R)-2-hydroxy-2-(8-hydroxy-2-oxo-1,2-dihydroquinolin-5-yl)ethyl]amino}methyl)phenyl]-1,2,4-oxadiazol-5-yl}propyl)(methyl)amino]cyclohexylhydroxy(di-2-thienyl)acetate dihydrofluoride [Example 5]",2.7,0.4
"trans-4-[{3-[5-({[(2R)-2-hydroxy-2-(8-hydroxy-2-oxo-1,2-dihydroquinolin-5-yl)ethyl]amino}methyl)-2-oxo-2,3-dihydro-1H-benzimidazol-1-yl]propyl}(methyl)amino]cyclohexylhydroxy(di-2-thienyl)acetate dihydrofluoride [Example 2]",120,0.4
"trans-4-[{3-[6-({[(2R)-2-hydroxy-2-(8-hydroxy-2-oxo-1,2-dihydroquinolin-5-yl)ethyl]amino}methyl)-2-oxo-1,3-benzothiazol-3(2H)-yl]propyl}(methyl)amino]cyclohexylhydroxy(di-2-thienyl)acetate dihydrofluoride [Example 11]",4.2,0.5
